Legend:
[1] = tested on: Wnt activity (SW480 colon carcinoma cells stably expressing the Sp5-Luc reporter gene); test: Wnt activity screening assay (Sp5-Luc reporter gene assay); format: cell-based, human; settings: Homo sapiens; for EC50: 36 to 48 hours; for inhibition at 10 µM: read-out: percent inhibition at 10 μM (given for EC50 >10 μM), 10 μM
In short: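 SW480 colon carcinoma cells stably carrying a lentiviral luciferase reporter driven by an Sp5 promoter with eight TCF/LEF sites, plated at 4,000 cells/well in DMEM with 1% FBS. Compound exposure for 36–48 h at 37 °C, then luminescence read. Signals normalized to DMSO; EC50 from four-parameter nonlinear fit.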

[2] = tested on: secreted cytokines TNFα, IL-6 and KC-GRO in BV-2 cells (mouse microglial cells); test: Secreted cytokines in lipopolysaccharide-stimulated mouse glial cell line; format: cell-based; settings: LPS 250 ng/mL 5 hours, table does not say which cytokine
Experimental: Representative compounds were screened using the cell-based assay procedure for secreted cytokines in a Lipopolysaccharide-stimulated mouse glial cell line described below.
BV-2 cells (mouse microglial cells) were cultured in 1:1 DMEM medium supplemented with 10% FBS, and 1% penicillin/streptomycin.
BV-2 cells are plated at 35,000 cells/well in a volume of 100 μl for at least 4 hours before compounds are added. DMSO-resuspended compounds were first dispensed in a 96-well plate and serial diluted from 10 μM to 4.6 nM final concentration in medium. Compounds were added to cells overnight. 250 ng/mL of lipopolysaccharide (Escherichia coli O111:B4, SIGMA) was added for 5 hours. Supernatant is removed and saved for further cytokine detection. The original plates with seeded cells were tested for cytotoxicity by measure of adenosine triphosphate (ATP) release by adding CellTiter-Glo® diluted 1:4 in distilled water (G7573, Promega) and transferring lysed cells to a completely black 96-well plate to be read with the Cytation3. Supernatant was then diluted 1:2 with a diluent from V-PLEX cytokine Kit and directly tested for the secreted cytokines TNFα, IL-6 and KC-GRO using electrochemiluminescence (Meso Scale Discovery). The standard curve for each cytokine was used to convert the electrochemiluminescent signal into pg of protein per mL. The signal was used to plot, draw the curve fitting, and determine each compounds EC50 in Prism (GraphPad).

[3] = tested on: pT212Tau in Dyrk1a- and MAPT-overexpressing HEK293T cells; test: Tau phosphorylation at Threonine 212 (pT212Tau) sandwich ELISA in double transfected cells; settings: Homo sapiens, HEK-293T, read-out: Thr212 EC50 (μM)
Experimental: HEK293T cells (transfectable human embryonic kidney cells) were cultured in DMEM medium supplemented with 10% FBS and 1% penicillin/streptomycin.
HEK293T cells were transiently transfected to overexpress Dyrk1a and microtubule-associated protein Tau (MAPT) genes. Specifically, Dyrk1a and MAPT expression vectors were obtained from OriGene (10 μg of each, catalog numbers SC314641 and RC216166, respectively). […] HEK293T cells were seeded at 1.0×10^7 cells in 10 mL per T-75 flask. […] One T-75 flask was designated as a no-vector negative control for pT212Tau signal.
After 4-6 hours of incubation in transfection reagents, transiently double transfected HEK293T cells were dissociated by treatment with trypsin EDTA and seeded at 1.0×10^5 cells in 100 μL per well in 96-well plates. No-vector negative controls were seeded in separate 96-well plates to avoid the risk of the negative control cells picking up the overexpression during incubation.
96-well flat-bottom plates were coated with 100 μL per well anti-HT7 capture antibody (ThermoFisher, MN1000) diluted 1:300 in 1×PBS at 4° C. overnight, with shaking at 500 rpm.
Cells were then lysed with 100 μL 1×RIPA buffer supplemented with phosphatase and protease inhibitors (each diluted to a final 1×). […] V-bottom plates were centrifuged at 4000 rpm, 4° C., for 15 minutes, and 100 μL of lysate supernatant from each well was directly tested for pT212Tau signal by sandwich ELISA.

[4] = tested on: SW480 colon carcinoma cells; test: Cell viability assay (CellTiter-Glo); format: cell-based, human; settings: Homo sapiens; for EC50: 96 h, four days, CellTiter-Glo; for inhibition at 10 µM: read-out: percent inhibition at 10 μM (given for EC50 >10 μM), 10 μM
[5] = tested on: LL29 cells (primary human fibroblasts derived from IPF patients), α-smooth muscle actin; test: Inhibition of fibrotic process: TGF-β1-treated primary human fibroblasts, αSMA staining; format: cell-based; settings: Homo sapiens, Fibroblast; for EC50: 96 h, TGF-β1 20 ng/mL, 4 days, % cells positive for αSMA;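 on all read-outs here: controls were TGF-β1-stimulated wells with DMSO vehicle as the positive reference and cells given DMSO alone as the negative reference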
[6] = tested on: IL-6 in human peripheral blood mononuclear cells (huPBMCs); test: IL-6 inhibition in LPS-stimulated human peripheral blood mononuclear cells (HTRF); format: cell-based; settings: Homo sapiens, PBMC; for EC50: LPS 50 ng/mL, 22 hours, IL-6 HTRF; for inhibition at 10 µM: read-out: percent inhibition at 10 μM (given for EC50 >10 μM), LPS, IL-6, 10 μM
In short: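 Fresh normal human PBMCs at 1×10e6 cells/mL in RPMI with 1% FBS received compound, then 50 ng/mL E. coli 0111:B4 LPS 2 h later, and were incubated a further 22 h at 37° C. IL-6 read by HTRF (665/620 nm ratio), normalized to DMSO; EC50 from 4-parameter fit.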

Row | EC50 [1] [nM] | EC50 [2] [nM] | EC50 [4] [nM] | EC50 [6] [nM] | Structure (SMILES) | EC50 [3] [µM] | EC50 [5] [nM] | inhibition at 10 µM [1] [%] | inhibition at 10 µM [4] [%] | inhibition at 10 µM [6] [%] | inhibition at 10 µM ([5]; read-out: percent inhibition at 10 μM (given for EC50 >10 μM), TGF-β1, αSMA, 10 μM) [%]
1 | 1100 | 33 | 1600 | 1030 | O=C(Nc1cc2cc(-c3cccnc3)ccc2cn1)C1CC1 [Compound 6, N-(6-(Pyridin-3-yl)isoquinolin-3-yl)cyclopropanecarboxamide] | 0.01 | 197 | – | – | – | –
2 | 3840 | 6 | 3530 | 9260 | O=C(CN1CCCC1)Nc1cc2cc(-c3cccnc3)ccc2cn1 [Compound 7, N-(6-(Pyridin-3-yl)isoquinolin-3-yl)-2-(pyrrolidin-1-yl)acetamide] | 0.225 | 4350 | – | – | – | –
3 | 1280 | 36 | 3140 | 1970 | CN1CCC(C(=O)Nc2cc3cc(-c4cccnc4)ccc3cn2)CC1 [Compound 8, 1-Methyl-N-(6-(pyridin-3-yl)isoquinolin-3-yl)piperidine-4-carboxamide] | 0.019 | 398 | – | – | – | –
4 | > 10000 | 75 | > 10000 | > 10000 | O=C(CN1CCOCC1)Nc1cc2cc(-c3cccnc3)ccc2cn1 [Compound 10, 2-Morpholino-N-(6-(pyridin-3-yl)isoquinolin-3-yl)acetamide] | 0.046 | > 10000 | 15.3 | 15.4 | 3.7 | 6.2
5 | > 10000 | 327 | > 10000 | > 10000 | CN1CCN(CC(=O)Nc2cc3cc(-c4cccnc4)ccc3cn2)CC1 [Compound 11, 2-(4-Methylpiperazin-1-yl)-N-(6-(pyridin-3-yl)isoquinolin-3-yl)acetamide] | 2.5 | 3580 | 10.8 | 25.6 | 8.5 | –
6 | > 10000 | 1000 | > 10000 | 9860 | CN1CCCN(CC(=O)Nc2cc3cc(-c4cccnc4)ccc3cn2)CC1 [Compound 12, 2-(4-Methyl-1,4-diazepan-1-yl)-N-(6-(pyridin-3-yl)isoquinolin-3-yl) acetamide] | 0.284 | 1190 | 39.8 | 39.3 | – | –
7 | 3600 | 136 | > 10000 | 9030 | Cc1nccn1CC(=O)Nc1cc2cc(-c3cccnc3)ccc2cn1 [Compound 14, 2-(2-Methyl-1H-imidazol-1-yl)-N-(6-(pyridin-3-yl)isoquinolin-3-yl) acetamide] | 0.043 | 2240 | – | 47.6 | – | –
8 | 3100 | 21 | 6440 | 4820 | O=C(Cn1ccnc1)Nc1cc2cc(-c3cccnc3)ccc2cn1 [Compound 15, 2-(1H-Imidazol-1-yl)-N-(6-(pyridin-3-yl)isoquinolin-3-yl)acetamide] | 0.2 | 1520 | – | – | – | –
9 | 6730 | 38 | 3470 | 9350 | CN1CCN(C[C@H]2CC[C@H](C(=O)Nc3cc4cc(-c5cncc(F)c5)ccc4cn3)CC2)CC1 [Compound 17, trans-N-(6-(5-Fluoropyridin-3-yl)isoquinolin-3-yl)-4-((4-methylpiperazin-1-yl)methyl)cyclohexane-1-carboxamide] | 0.004 | 471 | – | – | – | –
10 | > 10000 | 1330 | > 10000 | > 10000 | O=C(CN1CCCC1)Nc1cc2cc(-c3cncc(F)c3)ccc2cn1 [Compound 18, N-(6-(5-Fluoropyridin-3-yl)isoquinolin-3-yl)-2-(pyrrolidin-1-yl)acetamide] | 0.053 | 5970 | 9.2 | 22.2 | 5.8 | –
11 | > 10000 | 124 | > 10000 | 9150 | CN1CCC(C(=O)Nc2cc3cc(-c4cncc(F)c4)ccc3cn2)CC1 [Compound 19, N-(6-(5-Fluoropyridin-3-yl)isoquinolin-3-yl)-1-methylpiperidine-4-carboxamide] | 0.205 | 1210 | 35.9 | 42.8 | – | –
12 | > 10000 | – | > 10000 | > 10000 | CN1CCN(CC(=O)Nc2cc3cc(-c4cncc(F)c4)ccc3cn2)CC1 [Compound 20, N-(6-(5-Fluoropyridin-3-yl)isoquinolin-3-yl)-2-(4-methylpiperazin-1-yl) acetamide] | 0.252 | 3140 | 17.4 | 37.2 | 3.6 | –
13 | > 10000 | 671 | > 10000 | > 10000 | CN1CCN(CC(=O)Nc2cc3cc(-c4ccc(F)nc4)ccc3cn2)CC1 [Compound 21, N-(6-(6-Fluoropyridin-3-yl)isoquinolin-3-yl)-2-(4-methylpiperazin-1-yl) acetamide] | 1.5 | 3400 | 5.5 | 50 | 6.3 | –
14 | > 10000 | 628 | > 10000 | > 10000 | O=C(CCN1CCOCC1)Nc1cc2cc(-c3cncc(F)c3)ccc2cn1 [Compound 23, N-(6-(5-Fluoropyridin-3-yl)isoquinolin-3-yl)-3-morpholinopropanamide] | > 10 | 1630 | 38.7 | 24.8 | 8.6 | –
15 | > 10000 | 640 | > 10000 | > 10000 | CN1CCC(C(=O)Nc2cc3cc(-c4cncc(C#N)c4)ccc3cn2)CC1 [Compound 32, N-(6-(5-Cyanopyridin-3-yl)isoquinolin-3-yl)-1-methylpiperidine-4-carboxamide] | 0.161 | 8400 | 24.2 | 8.8 | 5.1 | –
16 | 810 | 62 | 1820 | 3650 | COc1cncc(-c2ccc3cnc(NC(=O)C4CCN(C)CC4)cc3c2)c1 [Compound 33, N-(6-(5-Methoxypyridin-3-yl)isoquinolin-3-yl)-1-methylpiperidine-4-carboxamide] | 0.033 | 481 | – | – | – | –
17 | 319 | 60 | 813 | 375 | O=C(Nc1cc2cc(-c3cncc(NC4CCNCC4)n3)ccc2cn1)C1CCCCC1 [Compound 44, N-(6-(6-(piperidin-4-ylamino)pyrazin-2-yl)isoquinolin-3-yl) cyclohexanecarboxamide] | < 0.003 | 401 | – | – | – | –
18 | > 10000 | 131 | > 10000 | > 10000 | O=C(Nc1cc2cc(-c3cnccn3)ccc2cn1)C1CCN(C2COC2)CC1 [Compound 78, 1-(Oxetan-3-yl)-N-(6-(pyrazin-2-yl)isoquinolin-3-yl)piperidine-4-carboxamide] | – | 2310 | 28.1 | 27.7 | 8.9 | –

Row | Structure (SMILES) | EC50 [1] [nM] | EC50 [2] [nM] | EC50 [4] [nM] | EC50 [6] [nM] | EC50 [3] [µM] | EC50 [5] [nM] | inhibition at 10 µM [1] [%] | inhibition at 10 µM [4] [%] | inhibition at 10 µM [6] [%] | inhibition at 10 µM ([5]; read-out: percent inhibition at 10 μM (given for EC50 >10 μM), TGF-β1, αSMA, 10 μM) [%]
19 | O=C(Nc1cc2cc(-c3cccnc3)ccc2cn1)C12CCN(CC1)CC2 [Compound 9, N-(6-(Pyridin-3-yl)isoquinolin-3-yl)quinuclidine-4-carboxamide] | > 10000 | 745 | > 10000 | > 10000 | 0.213 | 2270 | 11.8 | 26 | 3.9 | –

From patent US10653688B2, “6-(6-membered heteroaryl and aryl)isoquinolin-3-yl carboxamides and preparation and use thereof” (Samumed, LLC, priority 2017, dated 2020)
